For 22 compounds, IC50 results are on record in patent publication US8017612B2, “Piperazine compound and use thereof as a HCV polymerase inhibitor” (priority 2006, dated 2011).

Assay [1] concerns the target T1, HCV polymerase (NS5B) type 1a (Hepatitis C virus genotype 1a, UniProt P26664).
T1 construct: made in house; host or cells: Escherichia coli (by the 'similar method' of the 1b enzyme)
The assay can be described thus: Assay of enzyme (HCV polymerase) inhibitory activity, type 1a enzyme. The format is biochemical, HCV type 1a (cloned from the blood of patients). The method, boiled down: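 Patient-derived type 1a NS5B (C-terminal 47-aa deletion, His-tagged, E. coli-expressed) at 1.5 μg/ml was reacted with 5 μg/ml 3′UTR-containing substrate RNA, 50 μM ATP/GTP/CTP, 2 μM UTP plus [3H]UTP, pH 7.5, 25° C for 60 min. TCA-precipitated RNA radioactivity was counted; IC50 from ± compound.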

Assay [2] addresses T2, HCV polymerase (NS5B) type 1b (Hepatitis C virus genotype 1b, UniProt P26663).
T2 construct: a region encoding NS5B (J Virol 1991 March, 65(3), 1105-13, 544 amino acids after deletion of 47 amino acids on the C-terminal); 6xHis (C); made in house; host or cells: Escherichia coli
The assay can be described thus: Assay of enzyme (HCV polymerase) inhibitory activity, type 1b enzyme. The format is biochemical, HCV BK strain (type 1b). The method, boiled down:
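NS5B from HCV BK strain (type 1b), C-terminal 47 aa deleted, C-terminal His6-tagged, E. coli-expressed, 0.5 μg/ml, with ~450 nt substrate RNA carrying the 3′ UTR (polyU, 3′X) at 5 μg/ml. Incubation 60 min at 25 °C with 50 μM ATP/GTP/CTP, 2 μM UTP plus [3H]UTP, pH 7.5 Tris.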

[3] abbreviates: HCV polymerase inhibitory activity (IC50), 1a, type 1a enzyme 1.5 μg/ml, 25° C., 60 min.
Setting [4] is: HCV polymerase inhibitory activity (IC50), 1b, type 1b enzyme 0.5 μg/ml, 25° C., 60 min.
The mark [5] stands for this setting: HCV polymerase inhibitory activity IC50, 1a, type 1a enzyme.
[6] abbreviates: HCV polymerase inhibitory activity IC50, 1b, type 1b enzyme.

Each structure is given as a SMILES string. Where a name gives a salt, the structure may show the parent alone. Some results are limits rather than exact numbers.

In the case of `COc1nc(CNC(=O)[C@H]2CN(C(C)=O)CCN2S(=O)(=O)c2ccc(OC(F)(F)F)cc2)ccc1C` [Example 649, (R)-4-acetyl-1-(4-trifluoromethoxy-benzenesulfonyl)-piperazine-2-carboxylic acid (6-methoxy-5-methyl-pyridin-2-ylmethyl)-amide], the IC50 in assay [1] (setting [3]) and in assay [2] (setting [4]) was over 1000 nM each time.

Consider `CCC(F)(F)c1ccc(CNC(=O)[C@H]2CN(c3cnc4c(n3)NS(=O)(=O)NC4)CCN2S(=O)(=O)c2ccc(OC(F)(F)F)cc2)cc1` [Example 650, (R)-4-(2,2-dioxo-1,2,3,4-tetrahydro-2λ^6-pyrazino[2,3-c][1,2,6]thiadiazin-7-yl)-1-(4-trifluoromethoxy-benzenesulfonyl)-piperazine-2-carboxylic acid 4-(1,1-difluoro-propyl)-benzylamide], for which the IC50 is 100 to 1000 nM in assay [1] (setting [3]) and under 100 nM in assay [2] (setting [4]).

With `CCOc1ccc(CNC(=O)[C@H]2CN(c3cnc4cncnc4n3)CCN2S(=O)(=O)c2ccc(OC(F)(F)F)cc2)cc1` [Example 651, (R)-4-pteridin-7-yl-1-(4-trifluoromethoxy-benzenesulfonyl)-piperazine-2-carboxylic acid 4-ethoxy-benzylamide], the IC50 in assay [1] (setting [3]) and in assay [2] (setting [4]) was under 100 nM in each case.

With `O=C(NCc1ccc(-c2cccs2)cc1)[C@H]1CN(c2cnc3cncnc3n2)CCN1S(=O)(=O)c1ccc(OC(F)(F)F)cc1` [Example 652, (R)-4-pteridin-7-yl-1-(4-trifluoromethoxy-benzenesulfonyl)-piperazine-2-carboxylic acid 4-thiophen-2-yl-benzylamide], the IC50 in assay [1] (setting [3]) and in assay [2] (setting [4]) was under 100 nM each time.

With `O=C(NCc1ccc(Br)cc1)[C@H]1CN(c2cnc3cncnc3n2)CCN1S(=O)(=O)c1ccc(OC(F)(F)F)cc1` [Example 653, (R)-4-pteridin-7-yl-1-(4-trifluoromethoxy-benzenesulfonyl)-piperazine-2-carboxylic acid 4-bromo-benzylamide], the IC50 in assay [1] (setting [3]) and in assay [2] (setting [4]) was under 100 nM each time.

With `CC(=O)N1CCN(S(=O)(=O)c2ccc(OC(F)(F)F)cc2)[C@@H](C(=O)NCC2CCNCC2)C1` [Example 654, (R)-4-acetyl-1-(4-trifluoromethoxy-benzenesulfonyl)-piperazine-2-carboxylic acid (piperidin-4-ylmethyl)-amide hydrochloride], the IC50 in assay [1] (setting [3]) and in assay [2] (setting [4]) was over 1000 nM throughout.

For `CC(=O)N1CCN(S(=O)(=O)c2ccc(OC(F)(F)F)cc2)[C@@H](C(=O)NCc2ccc(Br)cc2)C1` [Example 655, (R)-4-acetyl-1-(4-trifluoromethoxy-benzenesulfonyl)-piperazine-2-carboxylic acid 4-bromo-benzylamide], the IC50 in assay [1] (setting [3]) and in assay [2] (setting [4]) was 100 to 1000 nM each time.

Consider `O=C(NCc1ccc(C2CC2)cc1)[C@H]1CN(c2cnc3cncnc3n2)CCN1S(=O)(=O)c1ccc(OC(F)(F)F)cc1` [Example 656, (R)-4-pteridin-7-yl-1-(4-trifluoromethoxy-benzenesulfonyl)-piperazine-2-carboxylic acid 4-cyclopropyl-benzylamide], for which the IC50 in assay [1] (setting [3]) and in assay [2] (setting [4]) was under 100 nM throughout.

As to `COCc1ccc(CNC(=O)[C@H]2CN(c3cnc4cncnc4n3)CCN2S(=O)(=O)c2ccc(OC(F)(F)F)cc2)cc1` [Example 657, (R)-4-pteridin-7-yl-1-(4-trifluoromethoxy-benzenesulfonyl)-piperazine-2-carboxylic acid 4-methoxymethyl-benzylamide], the IC50 in assay [1] (setting [3]) and in assay [2] (setting [4]) was under 100 nM each time.

Regarding `COc1ccc(CNC(=O)[C@H]2CN(c3cnc4cncnc4n3)CCN2S(=O)(=O)c2ccc(OC(F)(F)F)cc2)cc1` [Example 658, (R)-4-pteridin-7-yl-1-(4-trifluoromethoxy-benzenesulfonyl)-piperazine-2-carboxylic acid 4-methoxy-benzylamide], the IC50 in assay [1] (setting [3]) and in assay [2] (setting [4]) was under 100 nM each time.

As to `O=C(NCc1ccc(-c2cccs2)s1)[C@H]1CN(c2cnc3cncnc3n2)CCN1S(=O)(=O)c1ccc(OC(F)(F)F)cc1` [Example 659, (R)-4-pteridin-7-yl-1-(4-trifluoromethoxy-benzenesulfonyl)-piperazine-2-carboxylic acid ([2,2′]bithiophenyl-5-ylmethyl)-amide], the IC50 in assay [1] (setting [3]) and in assay [2] (setting [4]) was under 100 nM each time.

In the case of `O=C(NCc1ccc(C(F)(F)F)cc1)[C@H]1CN(c2cnc3cncnc3n2)CCN1S(=O)(=O)c1ccc(OC(F)(F)F)cc1` [Example 660, (R)-4-pteridin-7-yl-1-(4-trifluoromethoxy-benzenesulfonyl)-piperazine-2-carboxylic acid 4-trifluoromethyl-benzylamide], the IC50 in assay [1] (setting [3]) and in assay [2] (setting [4]) was under 100 nM throughout.

`CSc1ccc(CNC(=O)[C@H]2CN(c3cnc4cncnc4n3)CCN2S(=O)(=O)c2ccc(OC(F)(F)F)cc2)cc1` [Example 661, (R)-4-pteridin-7-yl-1-(4-trifluoromethoxy-benzenesulfonyl)-piperazine-2-carboxylic acid 4-methylsulfanyl-benzylamide]: the IC50 in assay [1] (setting [5]) and in assay [2] (setting [6]) was under 100 nM in each case.

For the compound `CCCN1CC=C(CNC(=O)[C@H]2CN(c3cnc4cncnc4n3)CCN2S(=O)(=O)c2ccc(OC(F)(F)F)cc2)CC1` [Example 662, (R)-4-pteridin-7-yl-1-(4-trifluoromethoxy-benzenesulfonyl)-piperazine-2-carboxylic acid (1-propyl-1,2,3,6-tetrahydro-pyridin-4-ylmethyl)-amide], the IC50 was over 1000 nM in assay [1] (setting [5]) and 100 to 1000 nM in assay [2] (setting [6]).

With `O=C(NCc1ccc(-c2ccccc2)cc1)[C@H]1CN(c2cnc3cncnc3n2)CCN1S(=O)(=O)c1ccc(OC(F)(F)F)cc1` [Example 663, (R)-4-pteridin-7-yl-1-(4-trifluoromethoxy-benzenesulfonyl)-piperazine-2-carboxylic acid (biphenyl-4-ylmethyl)-amide], the IC50 in assay [1] (setting [5]) and in assay [2] (setting [6]) was under 100 nM in each case.

As to `CCC(F)(F)c1ccc(CNC(=O)[C@H]2CN(c3nc4c(=O)[nH]ncc4s3)CCN2S(=O)(=O)c2ccc(OC(F)(F)F)cc2)cc1` [Example 664, (R)-4-(4-oxo-4,5-dihydro-thiazolo[4,5-d]pyridazin-2-yl)-1-(4-trifluoromethoxy-benzenesulfonyl)-piperazine-2-carboxylic acid 4-(1,1-difluoro-propyl)-benzylamide], the IC50 in assay [1] (setting [5]) and in assay [2] (setting [6]) was under 100 nM in each case.

In the case of `CC(C)(C)c1ccc(CNC(=O)[C@H]2CN(C(=O)/C=C\C(=O)O)CCN2S(=O)(=O)c2ccc(OC(F)(F)F)cc2)cc1` [Example 665, (Z)-4-[(R)-3-(4-tert-butyl-benzylcarbamoyl)-4-(4-trifluoromethoxy-benzenesulfonyl)-piperazin-1-yl]-4-oxo-but-2-enoic acid], the IC50 in assay [1] (setting [5]) and in assay [2] (setting [6]) was over 1000 nM each time.

As to `CCC(F)(F)c1ccc(CNC(=O)[C@H]2CN(C(=O)/C=C\C(=O)O)CCN2S(=O)(=O)c2ccc(OC(F)(F)F)cc2)cc1` [Example 666, (Z)-4-[(R)-3-[4-(1,1-difluoro-propyl)-benzylcarbamoyl]-4-(4-trifluoromethoxy-benzenesulfonyl)-piperazin-1-yl]-4-oxo-but-2-enoic acid], the IC50 in assay [1] (setting [5]) and in assay [2] (setting [6]) was over 1000 nM in each case.

Take `CCC(F)(F)c1ccc(CNC(=O)[C@H]2CN(C(=O)/C=C/C(=O)O)CCN2S(=O)(=O)c2ccc(OC(F)(F)F)cc2)cc1` [Example 667, (E)-4-[(R)-3-[4-(1,1-difluoro-propyl)-benzylcarbamoyl]-4-(4-trifluoromethoxy-benzenesulfonyl)-piperazin-1-yl]-4-oxo-but-2-enoic acid]: the IC50 was over 1000 nM in assay [1] (setting [5]) and 100 to 1000 nM in assay [2] (setting [6]).

In the case of `CC(C)(C)c1ccc(CNC(=O)[C@H]2CN(C(=O)/C=C/C(=O)O)CCN2S(=O)(=O)c2ccc(OC(F)(F)F)cc2)cc1` [Example 668, (E)-4-[(R)-3-(4-tert-butyl-benzylcarbamoyl)-4-(4-trifluoromethoxy-benzenesulfonyl)-piperazin-1-yl]-4-oxo-but-2-enoic acid], the IC50 in assay [1] (setting [5]) and in assay [2] (setting [6]) was over 1000 nM in each case.

Consider `CC(=O)N1CCN(S(=O)(=O)c2ccc(OC(F)(F)F)cc2)[C@@H](C(=O)NC[C@H]2CC[C@H](C(=O)O)CC2)C1` [Example 669, trans-4-({[(R)-4-acetyl-1-(4-trifluoromethoxy-benzenesulfonyl)-piperazine-2-carbonyl]-amino}-methyl)-cyclohexanecarboxylic acid], for which the IC50 in assay [1] (setting [5]) and in assay [2] (setting [6]) was over 1000 nM in each case.

As to `CC(=O)N1CCC(CNC(=O)[C@H]2CN(C(C)=O)CCN2S(=O)(=O)c2ccc(OC(F)(F)F)cc2)CC1` [Example 670, (R)-4-acetyl-1-(4-trifluoromethoxy-benzenesulfonyl)-piperazine-2-carboxylic acid (1-acetyl-piperidin-4-ylmethyl)-amide], the IC50 in assay [1] (setting [5]) and in assay [2] (setting [6]) was over 1000 nM each time.
